Molecular target: T1, TRPC4-SYFP2 (TRPC4:C4 channels) (Homo sapiens, UniProt Q9UBN4)
T1 construct: expressed in transfected cells
T1 sequence (Q9UBN4 1-893 isoform Q9UBN4-2): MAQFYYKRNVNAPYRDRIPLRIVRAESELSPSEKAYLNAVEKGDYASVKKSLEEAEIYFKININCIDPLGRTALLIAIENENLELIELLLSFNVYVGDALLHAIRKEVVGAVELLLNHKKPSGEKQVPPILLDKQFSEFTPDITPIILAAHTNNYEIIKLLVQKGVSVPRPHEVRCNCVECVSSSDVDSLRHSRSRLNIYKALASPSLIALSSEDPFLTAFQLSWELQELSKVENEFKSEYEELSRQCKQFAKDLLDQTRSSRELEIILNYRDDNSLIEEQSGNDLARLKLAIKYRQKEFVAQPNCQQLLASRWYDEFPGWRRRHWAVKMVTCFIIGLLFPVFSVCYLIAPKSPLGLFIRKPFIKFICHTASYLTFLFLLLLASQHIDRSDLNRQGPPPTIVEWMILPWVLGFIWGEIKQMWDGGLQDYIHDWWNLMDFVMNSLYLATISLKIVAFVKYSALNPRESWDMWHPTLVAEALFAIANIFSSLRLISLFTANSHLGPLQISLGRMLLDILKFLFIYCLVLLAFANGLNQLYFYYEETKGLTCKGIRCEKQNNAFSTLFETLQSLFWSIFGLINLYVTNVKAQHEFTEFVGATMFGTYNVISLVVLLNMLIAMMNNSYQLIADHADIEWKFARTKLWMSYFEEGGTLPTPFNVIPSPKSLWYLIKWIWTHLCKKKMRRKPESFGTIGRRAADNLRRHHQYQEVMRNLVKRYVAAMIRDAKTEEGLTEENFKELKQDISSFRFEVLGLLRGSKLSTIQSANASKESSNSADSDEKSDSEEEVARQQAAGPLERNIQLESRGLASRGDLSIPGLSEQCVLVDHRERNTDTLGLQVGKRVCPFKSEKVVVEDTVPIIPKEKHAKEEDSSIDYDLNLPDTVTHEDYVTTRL
Assay: [Ca2+]i measurement in (Tet+) HEK T-REx cells expressing hTRPC4-SYFP2
Format: cell-based
From the text: To facilitate cloning of TRPC5‐SYFP2 and TRPC4‐SYFP2, a pcDNA™4/TO expression vector (ThermoFisher Scientific, Waltham, MA, USA), into which a four amino acid linker (ASAS) flanked by AgeI and SacII restriction sites had been introduced between EcoRI and XhoI restriction sites, was used (Naylor et al., 2016). Human TRPC4β was inserted between BamHI and AgeI restriction sites as described previously (Ludlow et al., 2017). Human TRPC5 (forward primer: 5′ GCTTGGTACCGCCACCATG 3′ and reverse primer: 5′ […] 3′) was inserted upstream of the linker between KpnI and AgeI restriction sites using hTRPC5/pcDNA™4/TO (Zeng et al., 2004) as a PCR template. Both constructs contained an N‐terminal Kozak sequence. SYFP2 was inserted downstream of the linker between SacII and XbaI restriction sites using pSYFP2‐C1 as a PCR template (forward primer, 5′ […] 3′; reverse primer, 5′ […] 3′). pSYFP2‐C1 was a gift from Dorus Gadella (Addgene plasmid #22878; http://n2t.net/addgene:22878; RRID:Addgene_22878; Kremers, Goedhart, van Munster, & Gadella, 2006). Plasmids were sequenced to verify identity.
HEK T‐REx™ cell line was transfected with TRPC5‐SYFP2 or TRPC4‐SYFP2 using FuGENE® HD transfection reagent. After 48 hr, cells were put under antibiotic selection using 400 μg·ml^−1 zeocin and 10 μg·ml^−1 blasticidin S (Invivogen, San Diego, California, USA). Medium changes were carried out regularly to remove dead cells. HEK T‐REx cells expressing tetracycline‐inducible human TRPC5, TRPC4–C1, and TRPC5–C1 were created as described previously (Akbulut et al., 2015; Ludlow et al., 2017; Rubaiy, Ludlow, Henrot, et al., 2017). TRPC5–C1 and TRPC4–C1 concatemers allow expression of functional channels with defined 2:2 stoichiometry that display ion permeability and current–voltage relationships distinct from those of homomeric TRPC4:C4 or TRPC5:C5 channels and consistent with those obtained upon co‐expression of TRPC1 with TRPC4 or TRPC5 (Ludlow et al., 2017; Rubaiy, Ludlow, Bon, & Beech, 2017; Rubaiy, Ludlow, Henrot, et al., 2017). […]

Cn1c(=O)n(CCCO)c(=O)c2c1nc(Oc1ccc(Cl)c(OC(F)(F)F)c1)n2Cc1ccc(Cl)cc1 [AM237]
Hill slope, inhibition of EA response: −0.78
Effect of pretreatment on basal [Ca2+]i (0.3–300 nM AM237): did not affect
Activation upon acute administration ([Ca2+]i) (3-300 nM AM237): lack of activation
